Measurements from ChEMBL document CHEMBL1130597, “Design of a high affinity peptidomimetic opioid agonist from peptide pharmacophore models” (Bioorg Med Chem Lett, 1998).

Target: Mu-type opioid receptor (Rattus norvegicus, UniProt P33535)
Experiment: Compound was tested for its ability to stimulate [35S]GTP-gamma-S, binding to membranes from C6 glioma cells stably expressing rat mu opioid receptor
Assay type: functional, cell membranes

Sequence of Mu-type opioid receptor (P33535 whole entry): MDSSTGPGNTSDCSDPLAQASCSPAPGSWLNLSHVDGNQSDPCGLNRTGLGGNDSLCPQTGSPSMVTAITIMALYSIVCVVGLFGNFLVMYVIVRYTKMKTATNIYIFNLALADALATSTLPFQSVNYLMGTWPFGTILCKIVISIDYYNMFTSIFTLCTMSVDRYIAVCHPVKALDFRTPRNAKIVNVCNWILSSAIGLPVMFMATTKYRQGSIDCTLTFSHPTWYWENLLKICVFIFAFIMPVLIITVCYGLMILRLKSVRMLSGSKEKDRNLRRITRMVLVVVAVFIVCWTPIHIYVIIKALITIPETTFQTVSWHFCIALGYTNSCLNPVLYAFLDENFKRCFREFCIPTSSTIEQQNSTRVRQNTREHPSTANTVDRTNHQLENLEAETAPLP

Compound: CC1(C)SSC[C@@H](NC(=O)[C@@H](N)Cc2ccc(O)cc2)C(=O)N[C@@H](Cc2ccccc2)C(=O)N[C@@H]1C(N)=O
- EC50: 18.2 nM
